Reference: patent US12662451B2, “Chemical compounds and uses thereof” (GLAXOSMITHKLINE INTELLECTUAL PROPERTY (NO.4) LIMITED, priority 2023, dated 2026)
Counter-ions that a name gives are not always drawn. Like-named read-outs stand apart in the source and are kept apart here.

How the values were obtained:
[1] = target: T1, recombinant full-length WRN protein (1-1432) (Homo sapiens, UniProt Q14191); test: WRN unwinding activity, fluorogenic 384-well assay (Example A); type: biochemical; settings: WRN unwinding activity, 4 hr; Table 2; read-out: 4 hr UNW pIC50 (converted)
T1 construct: recombinant full-length WRN protein (1-1432)
T1 sequence (Q14191 whole entry): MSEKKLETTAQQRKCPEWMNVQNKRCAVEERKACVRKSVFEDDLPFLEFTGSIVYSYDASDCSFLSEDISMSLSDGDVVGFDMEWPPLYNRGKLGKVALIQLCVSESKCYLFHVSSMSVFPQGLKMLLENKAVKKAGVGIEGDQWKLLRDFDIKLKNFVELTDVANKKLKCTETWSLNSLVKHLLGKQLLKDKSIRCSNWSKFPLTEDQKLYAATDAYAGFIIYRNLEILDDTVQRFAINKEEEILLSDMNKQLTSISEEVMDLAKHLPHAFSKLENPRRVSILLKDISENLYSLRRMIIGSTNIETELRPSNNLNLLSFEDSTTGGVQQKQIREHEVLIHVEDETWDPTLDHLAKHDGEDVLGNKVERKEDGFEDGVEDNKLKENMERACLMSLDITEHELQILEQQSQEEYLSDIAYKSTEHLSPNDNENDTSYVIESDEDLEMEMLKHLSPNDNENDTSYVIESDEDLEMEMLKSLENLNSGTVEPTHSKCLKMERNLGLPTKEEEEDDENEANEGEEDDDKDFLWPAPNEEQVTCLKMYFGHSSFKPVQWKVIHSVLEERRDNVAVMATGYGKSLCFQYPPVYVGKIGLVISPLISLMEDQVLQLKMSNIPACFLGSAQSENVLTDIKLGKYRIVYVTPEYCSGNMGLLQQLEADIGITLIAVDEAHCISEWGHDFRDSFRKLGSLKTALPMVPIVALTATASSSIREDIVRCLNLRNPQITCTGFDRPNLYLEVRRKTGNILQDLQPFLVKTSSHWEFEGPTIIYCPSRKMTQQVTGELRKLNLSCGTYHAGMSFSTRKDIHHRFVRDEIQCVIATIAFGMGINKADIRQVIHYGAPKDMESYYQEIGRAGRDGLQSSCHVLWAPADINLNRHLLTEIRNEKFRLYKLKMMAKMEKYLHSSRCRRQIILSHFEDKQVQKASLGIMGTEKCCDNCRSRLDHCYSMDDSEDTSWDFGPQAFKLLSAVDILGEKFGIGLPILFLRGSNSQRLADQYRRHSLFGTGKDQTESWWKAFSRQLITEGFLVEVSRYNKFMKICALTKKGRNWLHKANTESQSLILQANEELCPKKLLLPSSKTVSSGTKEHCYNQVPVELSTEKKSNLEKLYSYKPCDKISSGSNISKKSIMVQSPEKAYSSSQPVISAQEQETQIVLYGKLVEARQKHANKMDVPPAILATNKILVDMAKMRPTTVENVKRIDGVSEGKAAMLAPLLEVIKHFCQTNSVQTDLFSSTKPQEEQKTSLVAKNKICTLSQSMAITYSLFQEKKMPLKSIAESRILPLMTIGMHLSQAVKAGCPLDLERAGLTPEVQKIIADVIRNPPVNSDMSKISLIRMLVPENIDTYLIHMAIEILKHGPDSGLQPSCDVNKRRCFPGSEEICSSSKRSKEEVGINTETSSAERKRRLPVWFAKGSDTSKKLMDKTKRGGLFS
In short: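 200 pM enzyme (2× stock) preincubated with compound 4 h at ambient temperature, then 200 μM ATP and 12 nM quenched TAMRA-labelled dsDNA (2× stocks) added for 60 min; EDTA-quenched. Buffer 25 mM Tris pH 8.0, 5 mM NaCl, 2 mM MgCl2. Fluorescence at 525/598 nm; pIC50 from four-parameter fit.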

[2] = Cell culture media unbound percentage and stability by rapid equilibrium dialysis (Example C); type: in vitro ADME; settings: bovine, cell assay medium (RPMI-1640 with 10% fetal bovine serum), pH 7.4, rapid equilibrium dialysis, 4 hours at 37° C., read-out: Cell Culture Media Binding (% unbound)
Description: It was observed that the compounds of the present disclosure are bound to cell assay media to various degrees, which would affect the cellular potency analysis in Example B. To measure free drug potency, concentrations used in the cell assays were corrected with the measured free fraction determined in the cell assay media. Compounds were incubated in a rapid equilibrium dialysis (RED) at a nominal concentration of 1 μM, using a dialysis buffer of phosphate-buffered saline (PBS, 100 mM sodium phosphate+150 mM sodium chloride, pH 7.4). The test compound was spiked into the medium. Aliquots were added to the donor wells of a RED plate in triplicate, and blank PBS was added to each receiver well, at volumes recommended by the manufacturer. Plates were incubated with shaking at 200 rpm for 4 hours at 37° C. The resultant samples were analysed by LC-MS/MS using a specific and sensitive method. Results were reported as analyte:internal standard peak area ratios (PARs), and the percent unbound was calculated with the following equation:
[formula] where D=the matrix dilution factor (D=1 for media); Apparent Fu=Crec/Cdon; Crec=PAR in receiver samples; Cdon=PAR in donor samples. Percent stability was calculated by:
[formula] where Cfinal=PAR in the T=240 minute sample; Cinitial=PAR in the T=0 minute sample. Cell culture media unbound percentage and calculated free drug potency of selected compounds along with their measured potency from Example B are shown in Table 3.

[3] = tested on: SW48 human colorectal cancer cells; test: Calculated free drug potency in SW48 cell assay, corrected with media free fraction (Example C); type: cell-based; settings: Homo sapiens, SW48, SW48 pCC50 corrected with measured free fraction in cell assay media
In short: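 Compound spiked at nominal 1 μM into cell assay medium and dialysed against PBS (100 mM sodium phosphate, 150 mM NaCl, pH 7.4) by rapid equilibrium dialysis, 4 h, 37 °C, shaking. Percent unbound from LC-MS/MS peak area ratios (240 min vs 0 min); cell assay concentrations corrected by this free fraction.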

[4] = tested on: SW48 human colorectal cancer cells (MSI-H cancer cells); test: SW48 cell viability, CellTiter-Glo, 120 hours (Example B); settings: Homo sapiens
[5] = SW48, 120 h, read-out: SW48 pCC50, SW48 cell viability, 120 hours incubation (converted), Table 2
[6] = SW48, read-out: SW48 pCC50, measured potency from Example B, as repeated in Table 3 (converted)

| Structure (SMILES) | IC50 [1] [nM] | fraction unbound at 4 h, 1 µM [2] | CC50 [3] [nM] | CC50 [4, 5] [nM] | CC50 [4, 6] [nM] |
| --- | --- | --- | --- | --- | --- |
| Cc1nc2cc(S(=O)(=O)N(C)c3ccc([C@H]4C[C@@H](O[C@H]5CCOC5)C[C@@H](C(=O)Nc5ccc(C(F)(F)F)cc5F)[C@@H]4C(=O)O)cc3)ccc2n1C (stereo in doubt) [Example 323, (1R*,2R*,4R*,6S*)-2-((2-fluoro-4-(trifluoromethyl)phenyl)carbamoyl)-4-(((S)-tetrahydrofuran-3-yl)oxy)-6-(4-((N,1,2-trimethyl-1H-benzo[d]imidazole)-5-sulfonamido)phenyl)cyclohexane-1-carboxylic acid] | 1.58 | 0.144 | 14.5 | 100 | 100 |
| Cc1nc2cc(S(=O)(=O)N(C)c3ccc([C@@H]4C[C@@H]5COC[C@@H]5[C@@H](C(=O)Nc5ccc(C(F)(F)F)cc5F)[C@@H]4C(=O)O)cc3)ccc2n1C (single isomer, unassigned) [Example 389] | 5.01 | 0.235 | 589 | 2510 | 2510 |
| Cc1nc2cc(S(=O)(=O)N(C)c3ccc([C@@H]4C[C@H](N5CC[C@@H](F)C5)C[C@H](C(=O)Nc5ccc(C(F)(F)F)cc5F)[C@H]4C(=O)O)cc3)ccc2n1C (stereo in doubt) [Example 381, rel-(1R*,2R*,4R*,6S*)-2-((2-fluoro-4-(trifluoromethyl)phenyl)carbamoyl)-4-((R)-3-fluoropyrrolidin-1-yl)-6-(4-((N,1,2-trimethyl-1H-benzo[d]imidazole)-5-sulfonamido)phenyl)cyclohexane-1-carboxylic acid] | 79.4 | 0.308 | 2450 | 7940 | 7940 |
| Cc1nc2c(F)c(S(=O)(=O)N(C)c3ccc([C@H]4CCC[C@@H](C(=O)Nc5ccc(C(F)(F)F)cc5F)[C@@H]4C(=O)O)cc3)ccc2n1C [Example 128, (1R,2R,6S)-2-((2-fluoro-4-(trifluoromethyl)phenyl)carbamoyl)-6-(4-((4-fluoro-N,1,2-trimethyl-1H-benzo[d]imidazole)-5-sulfonamido)phenyl)cyclohexane-1-carboxylic acid] | 3.98 | 0.0452 | 45.7 | 1000 | 1000 |
| CCO[C@H]1C[C@@H](COc2ccc(C(F)(F)F)cc2)[C@H](C(=O)O)[C@@H](c2ccc(N(C)S(=O)(=O)c3ccc4c(c3)nc(C)n4C)cc2)C1 (single isomer, unassigned) [Example 221] | 3.98 | 0.0411 | 81.3 | 2000 | 2000 |
| Cc1nc2cc(S(=O)(=O)N(C)c3ccc([C@@H]4C[C@@H](N5CCCC(F)(F)C5)C[C@H](C(=O)Nc5ccc(C(F)(F)F)cc5F)[C@H]4C(=O)O)cc3)ccc2n1C (stereo in doubt) [Example 362, rel-(1R,2R,4S,6S)-4-(3,3-difluoropiperidin-1-yl)-2-((2-fluoro-4-(trifluoromethyl)phenyl)carbamoyl)-6-(4-((N,1,2-trimethyl-1H-benzo[d]imidazole)-5-sulfonamido)phenyl)cyclohexane-1-carboxylic acid] | 1580 | 0.169 | 1700 | 10000 | – |
| Cc1nc2cc(S(=O)(=O)N(C)c3ccc([C@@H]4C[C@H](N5CC6(F)CC5C6)C[C@H](C(=O)Nc5ccc(C(F)(F)F)cc5F)[C@H]4C(=O)O)cc3)ccc2n1C (relative stereo) [Example 397, rel-(1R,2R,4R,6S)-2-((2-fluoro-4-(trifluoromethyl)phenyl)carbamoyl)-4-(4-fluoro-2-azabicyclo[2.1.1]hexan-2-yl)-6-(4-((N,1,2-trimethyl-1H-benzo[d]imidazole)-5-sulfonamido)phenyl)cyclohexane-1-carboxylic acid] | 1.58 | 0.0527 | 16.6 | 316 | 316 |
| CN(c1ccc([C@H]2CCC[C@@H](C(=O)Nc3ccc(C(F)(F)F)cc3F)[C@@H]2C(=O)O)cc1)S(=O)(=O)c1cccc(C2CNC(=O)C2)c1 (stereo partly drawn) [Example 113, (1R,2R,6S)-2-((2-fluoro-4-(trifluoromethyl)phenyl)carbamoyl)-6-(4-((N-methyl-3-(5-oxopyrrolidin-3-yl)phenyl)sulfonamido)phenyl)cyclohexane-1-carboxylic acid] | 1.58 | 0.0899 | 56.2 | 631 | 631 |
| Cc1nc2cc(S(=O)(=O)N(C)c3ccc([C@@H]4C[C@H](O[C@@H]5CCOC5)C[C@H](C(=O)Nc5ccc(C(F)(F)F)cc5F)[C@H]4C(=O)O)cc3)ccc2n1C (stereo in doubt) [Example 322, (1R*,2R*,4R*,6S*)-2-((2-fluoro-4-(trifluoromethyl)phenyl)carbamoyl)-4-(((R)-tetrahydrofuran-3-yl)oxy)-6-(4-((N,1,2-trimethyl-1H-benzo[d]imidazole)-5-sulfonamido)phenyl)cyclohexane-1-carboxylic acid] | 20 | 0.362 | 3630 | 10000 | – |
| Cc1nc2cc(S(=O)(=O)N(C)c3ccc([C@H]4C[C@@H](N5CCC(F)(F)CC5)C[C@@H](C(=O)Nc5ccc(C(F)(F)F)cc5F)[C@@H]4C(=O)O)cc3)ccc2n1C (stereo in doubt) [Example 344] | 5.01 | 0.118 | 14.8 | 126 | 126 |
| CN(c1ccc([C@H]2CCC[C@@H](COc3ccc(C(F)(F)F)cc3)[C@@H]2C(=O)O)cc1)S(=O)(=O)c1ccc2c(c1)nc(CCN)n2C [Example 273] | 5.01 | 0.0082 | 64.6 | 7940 | 7940 |
| Cc1nc2cc(S(=O)(=O)N(C)c3ccc([C@H]4CCC[C@@H](C(=O)Nc5ccc(C(F)(F)F)cc5F)[C@@H]4C(=O)O)cc3)cnc2n1C [Example 124, (1R,2R,6S)-2-((2-fluoro-4-(trifluoromethyl)phenyl)carbamoyl)-6-(4-((N,2,3-trimethyl-3H-imidazo[4,5-b]pyridine)-6-sulfonamido)phenyl)cyclohexane-1-carboxylic acid] | 3.98 | 0.097 | 49 | 501 | 501 |
| Cc1nc2cc(S(=O)(=O)N(C)c3ccc([C@H]4CCC[C@@H](C(=O)Nc5ccc(C(F)(F)F)cc5F)[C@@H]4C(=O)O)cc3)cc([C@H]3CCCNC3)c2n1C (relative stereo) [Example 269, (1R,2R,6S)-2-((2-fluoro-4-(trifluoromethyl)phenyl)carbamoyl)-6-(4-((N,1,2-trimethyl-7-((R*)-piperidin-3-yl)-1H-benzo[d]imidazole)-5-sulfonamido)phenyl)cyclohexane-1-carboxylic acid hydrochloride] | 0.794 | 0.257 | 646 | 2510 | 2510 |
| Cc1nc2cc(S(=O)(=O)N(C)c3ccc([C@H]4CCC[C@@H](C(=O)Nc5ccc(C(F)(F)F)cc5F)[C@@H]4C(=O)O)cc3Cl)ccc2n1C [Example 296] | 1.58 | 0.0979 | 155 | 1580 | 1580 |
| CC(=O)N1CCc2cc(S(=O)(=O)N(C)c3ccc([C@H]4CCC[C@@H](C(=O)Nc5ccc(C(F)(F)F)cc5F)[C@@H]4C(=O)O)cc3)ccc21 (single isomer, unassigned) [Example 90] | 3.98 | 0.0553 | 69.2 | 1260 | 1260 |
| Cc1nc2cc(S(=O)(=O)N(C)c3ccc([C@H]4CCC[C@@H](COc5ccc(C(F)(F)F)cc5)[C@@H]4C(=O)O)cc3)ccc2n1CCN(C)C [Example 219, (1R,2S,6R)-2-(4-((1-(2-(dimethylamino)ethyl)-N,2-dimethyl-1H-benzo[d]imidazole)-5-sulfonamido)phenyl)-6-((4-(trifluoromethyl)phenoxy)methyl)cyclohexane-1-carboxylic acid] | 5.01 | 0.0031 | 19.5 | 6310 | 6310 |
